Reference: the supplement of paper PMC6723410

system: GUMC-403; test: viability at highest tested concentration (max response) relative to DMSO (% of DMSO control); higher = less cytotoxic; conditions: library / dose series: MIPE library, 11-point 1:3 dilution; top concentration 23 µM; 48 h
How it was run: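 Viability at the highest tested concentration is given relative to vehicle control. For this, conditionally reprogrammed patient-derived GUMC-403 papilloma cells at 700/well in 1536-well plates were exposed to 23 nL of pinned compound for 48 h. Luminescence from CellTiter-Glo was read on a ViewLux and scaled between empty wells (0%) and vehicle wells (100%).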

Compound | viability
CCCCCCCCCCCCCCCCCCOP(=O)([O-])OC1CC[N+](C)(C)CC1 | 127

same assay, conditions: library / dose series: MIPE library, 11-point 1:3 dilution; top concentration 46.1 µM; 48 h

Compound | viability
CC[C@H](C)C(=O)O[C@H]1C[C@@H](C)\C=C2\C=C/[C@H](C)[C@H](CC[C@@H]3C[C@@H](O)CC(=O)O3)[C@@H]12 | 61.5
CC(N[C@H]1CCCC[C@@H]1NC(=O)c1ccc(Cl)cc1)c1cccc2ccccc12 (some centres not stated) | 91.2
NCCc1ccc(O)c(O)c1 | 108
NC(=O)c1cccc(-c2cccc(OC(=O)NC3CCCCC3)c2)c1 | 104
CCOC(=O)c1c(CSc2ccccc2)n(C)c2cc(Br)c(O)c(CN(C)C)c12 | 105
Cc1cccc(/C=N/Nc2cc(N3CCOCC3)nc(OCCc3ccccn3)n2)c1 | 87.4
Cc1cn([C@@H]2O[C@H](CO)[C@@H](O)[C@@H]2F)c(=O)[nH]c1=O | 128
COC1=CC=C(C(=C1)OC(C)C)C/2=N/[C@@H]([C@@H](N2C(=O)N3CCNC(=O)C3)C4=CC=C(Cl)C=C4)C5=CC=C(Cl)C=C5 | 121
CC(C)(Sc1cc(C(C)(C)C)c(O)c(C(C)(C)C)c1)Sc1cc(C(C)(C)C)c(O)c(C(C)(C)C)c1 | 111
C=CCO/N=C(/C[C@H]1O[C@@H]2O[C@]3(C)CC[C@H]4[C@H](C)CC[C@@H]([C@H]1C)[C@@]24OO3)[C@H]1O[C@@H]2O[C@]3(C)CC[C@H]4[C@H](C)CC[C@@H]([C@H]1C)[C@@]24OO3 | 92.1
COC(=O)[C@H](Cc1ccccc1)NC(=O)[C@@H](N)CC(=O)O | 102
CN(CC#C)C/C1=C/C2=CC=CC=C2OC3=CC=CC=C13 | 81.4
C[C@]\12CCC(=O)\C=C1[C@@H]3C[C@@H]3[C@@H]4[C@@H]2CC[C@@]5(C)[C@H]4[C@@H]6C[C@@H]6[C@@]57CCC(=O)O7 | 89.8
COc1ccc2cc1Oc1ccc(cc1)C[C@H]1c3cc(c(OC)cc3CCN1C)Oc1c(OC)c(OC)cc3c1[C@H](C2)N(C)CC3 | 86
CCc1ccc(CCOc2ccc(CC3SC(=O)NC3=O)cc2)nc1 (configuration not stated) | 103
COC(=O)Nc1nc2cc(C(=O)c3ccccc3)ccc2[nH]1 | 88.2
C=C1C[C@@]2(O)O[C@@]3(C[C@H]2C(C)C)[C@@H](C)CC[C@@H]13 | 127
N[S+]([O-])(=O)C1=CC=C(NC/2=C/C(=O)C3=CC=CC=C3C2=O)C=C1 | 142
Cc1c(C(=O)c2cccc3ccccc23)c2cccc3c2n1[C@H](CN1CCOCC1)CO3 | 76.9
CC[C@H](CO)Nc1nc(NCc2ccccc2)c2ncn(C(C)C)c2n1 | 42.6
CCCCCCCCCCCCCCCC(=O)O[C@@H]1[C@@H](O)[C@@H](O)[C@@H]([C@H](NC(=O)[C@@H]2C[C@@H](CCC)CN2C)[C@H](C)Cl)O[C@@H]1SC.Cl | 116
O=c1[nH]cnc2c1ncn2[C@H]1CC[C@@H](CO)O1 | 144
NC/1=N/C(=O)C2=C(N1)[N](C=N2)[C@@H]3C[C@H](O)[C@@H](CO)C3=C | 100
C/C=C/C[C@@H](C)C(=O)[C@H]1C(=O)N[C@@H](C(C)C)C(=O)N(C)CC(=O)N(C)[C@@H](CC(C)C)C(=O)N[C@@H](C(C)C)C(=O)N(C)[C@@H](CC(C)C)C(=O)N[C@@H](C)C(=O)N[C@H](C)C(=O)N(C)[C@@H](CC(C)C)C(=O)N(C)[C@@H](CC(C)C)C(=O)N(C)[C@@H](C(C)C)C(=O)N1C | 90.6
CC(C)n1cnc2c(NCCCCCCNC(=O)OC(C)(C)C)nc(NCCO)nc21 | 107

Compound | viability
O=C(N[C@H]1CN2CCC1CC2)c1ccc(Cl)cc1 | 121
Oc1ccc2ccccc2c1SSc1c(O)ccc2ccccc12 | 129
COc1cc2c(Nc3ccc(Cl)c(Cl)c3F)ncnc2cc1OCC1C[C@@H]2CN(C)C[C@@H]2C1 (some centres not stated) | 12.5
CCN1CCCC1CNC(=O)c1cc([S+](N)(=O)[O-])ccc1OC (configuration not stated) | 134
CC(C)(O)CC(=O)NCCn1ccc2ncnc(Nc3ccc(Oc4cccc(C(F)(F)F)c4)c(Cl)c3)c21 | 71.7
COc1cc(Cl)cn2c(-c3cccc(NC4CNC4)n3)cnc12 | 133
CC(C)(Sc1ccc(CCN(CCCCC2CCCCC2)C(=O)NC2CCCCC2)cc1)C(=O)O | 109
C[C@@H]\1CC(=O)N\N=C1C2=CC=C(NN=C(C#N)C#N)C=C2 | 92.1
C[C@]12COC(=O)C[C@@H]1CC[C@@H]1[C@@H]2CC[C@@]2(C)[C@H]1CC[C@]2(C)O | 108
CC1=CC/2=C(C=C1C)N(C[C@@H](O)[C@@H](O)[C@@H](O)CO)C/3=N/C(=O)NC(=O)C3=N2 | 123
NC1=NC=C(C=C1)C2=CC=C3N=CC\4=C(N(C(=O)\C=C4)C5=CC(=CC=C5)C(F)(F)F)C3=C2 | 43.7
CC1(C)CCC(C)(C)c2cc(NC(=O)c3ccc(C(=O)O)cc3)ccc21 | 54.2
CC[C@H](CC#N)OC(=O)N[C@@H](C)c1cccc(NC(=O)Nc2ccc(-c3cnco3)c(OC)c2)c1 | 124
CN1CCC(CC1)=C2C3=C(C=CC=C3)\C=C/C4=C2C=CC=C4 | 111
N#Cc1c(N(CC(=O)[O-])CC(=O)[O-])sc(C(=O)[O-])c1CC(=O)[O-].O.O.O.O.O.O.O.[Sr+2].[Sr+2] | 112
CON(C)C(=O)N1\N=C(/S[C@]1(CCCN)C2=CC=CC=C2)C3=CC(=CC=C3F)F | 116
O=C(O)C(=O)c1cn(Cc2ccccc2)c2ccc(-c3ccc(OC(F)(F)F)cc3)cc12 | 111
CN(C)c1nc(Cc2ccc(NC(=O)c3ccc(C(F)(F)F)cc3)cc2)nc(N(C)C)c1CC(=O)O | 127
CC(C)(CO)[C@@H](O)C(=O)NCCC(=O)O | 82.6
Cc1c(C(=O)Nc2ccc(N3C[C@@H](C)O[C@@H](C)C3)nc2)cccc1-c1ccc(OC(F)(F)F)cc1 | 109
CC(CCc1ccc(O)cc1)NCCc1ccc(O)c(O)c1 (configuration not stated) | 105
Cc1cccc(Nc2nc(N[C@@H]3CCCC[C@@H]3N)ncc2C(N)=O)c1 | 66.7
Cc1c(CCOc2ccc(C(=O)O)cc2)c2cc(Cl)ccc2n1C(c1ccccc1)c1ccccc1 | 113
CN(C)[S+](=O)([O-])c1ccc2c(c1)C(=Cc1cc3c([nH]1)CCCC3)C(=O)N2 | 122
CO[C@H]1/C=C/O[C@@]2(C)Oc3c(C)c(O)c4c(c3C2=O)C2=NC3(CCN(CC(C)C)CC3)NC2=C(NC(=O)/C(C)=C\C=C\[C@H](C)[C@H](O)[C@@H](C)[C@@H](O)[C@@H](C)[C@H](OC(C)=O)[C@@H]1C)C4=O | 118

Compound | viability
c1ccc2c(Oc3nc(Nc4ccc(N5CCOCC5)cc4)c4ncn(C5CCCCC5)c4n3)cccc2c1 | 124
CCN1\C=C(C(O)=O)/C(=O)C2=C1C(=C(N3CCNC(C)C3)C(=C2)F)F (configuration not stated) | 126
CCCCCOC(=O)NC\1=N\C(=O)N(\C=C1F)[C@@H]2O[C@H](C)[C@@H](O)[C@H]2O | 83.9
CC(=O)OCCN1C(=O)c2c(C)nc3ccc([S+](=O)([O-])N4CCOCC4)cc3c2C1=O | 123
COC(=O)[C@@H]1[C@H]2C[C@H]3c4[nH]c5ccccc5c4CCN3C[C@@H]2CC[C@@H]1O | 128
COC[C@@H](NC(C)=O)C(=O)NCc1ccccc1 | 133
COc1cc(-c2nn(C3CCC(N4CCN(C(C)=O)CC4)CC3)c3ncnc(N)c23)ccc1NC(=O)c1cc2ccccc2n1C (configuration not stated) | 78.2
COC(=O)[C@@H](N)CCCNC(=N)N[N+](=O)[O-] | 107
CNC(=O)C1=CC=C(C)C(=C1)N2C(=C/C(=C(/Br)C2=O)OCC3=C(F)C=C(F)C=C3)\C | 109
CO[C@@H]1[C@@H](OC(N)=O)[C@@H](O)[C@H](OC2=CC=C3\C(=C(NC(=O)C4=CC=C([O-])C(=C4)CC=C(C)C)/C(=O)OC3=C2C)O)OC1(C)C | 108
O=C(O)[C@@H](c1ccc(OCc2ccc3ccccc3n2)cc1)C1CCCC1 | 108
C[C@H](c1ccc(F)cc1CCCC(=O)O)N(c1cc(F)ccc1F)[S+](=O)([O-])c1ccc(Cl)cc1 | 93.9
NCCCC(N)(C(=O)O)C(F)F (configuration not stated) | 114
CC(C)(C)NC(=O)[C@H]1CC[C@H]2[C@@H]3CC[C@H]4NC(=O)\C=C/[C@]4(C)[C@H]3CC[C@]12C | 66.2
OC[C@H]1O[C@@H](Oc2ccc(O)cc2)[C@H](O)[C@@H](O)[C@@H]1O | 99.9
O=C(O)c1ccc(-n2nc(-c3ccccc3O)nc2-c2ccccc2O)cc1 | 80.9
CN(C)CCCN\C1=C\2C(=O)N(C)C(=O)\N=C2N(C)C3=C1C=CC=C3 | 107
CCNC(=O)Nc1ccc2ncc(Nc3ccc(C)cc3)nc2n1 | 108
COCCOc1nc(-c2ccc(Cl)c(Cl)c2)n(-c2ccc(NC(=O)CCl)cc2)n1 | 85.8
CN1C(=O)C(Cc2c[nH]c3ccccc23)NC1=S (configuration not stated) | 102
C[C@H]1[C@@H](C(=O)C[C@H]2O[C@@H]3O[C@]4(C)CC[C@H]5[C@H](C)CC[C@@H]([C@H]2C)[C@@]35OO4)O[C@@H]2O[C@]3(C)CC[C@H]4[C@H](C)CC[C@@H]1[C@@]24OO3 | 121
Fc1ccc(Cl)cc1-c1nc(Nc2ccncc2)c2nccnc2n1 | 128
CC(=O)O[C@@]12CO[C@@H]1C[C@H](O)[C@]3(C)[C@@H]2[C@H](OC(=O)C4=CC=CC=C4)[C@]5(O)C[C@H](OC(=O)C(O)[C@@H](NC(=O)OC(C)(C)C)C6=CC=CC=C6)C(=C(/[C@@H](O)C3=O)C5(C)C)/C (some centres not stated) | 103
CC(O)(C[S+](=O)([O-])c1ccc(F)cc1)C(=O)Nc1ccc(C#N)c(C(F)(F)F)c1 (configuration not stated) | 114
COc1nccc(-c2c(-c3ccc(F)cc3)ncn2C2CCC(O)CC2)n1 (configuration not stated) | 131

same assay, conditions: library / dose series: MIPE library, 11-point 1:3 dilution; top concentration 92.2 µM; 48 h

Compound | viability
COc1ccc(-c2c(-c3ccc(O)cc3O)n[nH]c2C)cc1 | 98.3
